In one assay the test system is PR. The assay can be described thus: Quantitative RT-PCR of endogenous E2-regulated gene in MCF-7 cells. The assay is classed as cell-based, human. The settings on record: 500 μM, 16 h. As for the experimental part: (§1) Figure 3 Measurement of estrogenicity of tocols in vitro. (A) Dose–response curve of the effect of tocols on MCF-7 cells stably transfected with the ERE-β-globin-tk-Luc plasmid (MELN cells). […] Data shown are the mean values ± SEM from three independent experiments. (C) δ-TP or δ-TT stabilized ER-α in MCF-7 cells. […] MCF-7 extracts were analyzed for the presence of ERα by western blotting using GAPDH as a control. […] The western blot shown is representative of three independent experiments. […] (D) Effect of δ-tocols on estrogen response element-dependent luciferase activity in HELN cells, which are HELA cells transfected with either fully functional ERα or ERβ or their mutated versions containing a deletion the AB domain (ΔAB). […] Data shown are the mean values ± SEM from three independent experiments. (E) δ-Tocols modulate the induction of endogenous genes under the control of ER. […] Cells were treated with 500 μM δ-tocols in the presence or in the absence of ICI. The relative expression of TGFα, PR, and Ps2 (TFF1) after 16 h was analyzed by quantitative RT-PCR. Data shown are the mean values ± SEM from three independent experiments.

The next assay relates to Ps2 (TFF1). The assay is described as above. The conditions noted are these: 500 μM, 16 h. The assay is classed as cell-based, human. As for the experimental part: as §1
The test system of another assay is TGFα. The assay is described as above. The settings on record: 500 μM, 16 h. The assay is classed as cell-based, human. As for the experimental part:
as §1

The next assay addresses ERβ (Homo sapiens, UniProt Q92731). Description: Estrogen receptor-binding assay, competition with [3H]-17β-estradiol. The settings on record: extracts of cos-7 cells expressing human ERβ; 2 nM [3H]-E2; tocols 1 μM to 1 mM; N.M. = not measurable. On the set-up: expressed in transfected cells; host or cells: Cos-7.

The values below come from paper PMC4700278, “Molecular and Biochemical Analysis of the Estrogenic and Proliferative Properties of Vitamin E Compounds” (Frontiers in Oncology, 2016).

The structures appear in SMILES notation.

By IC50 is commonly meant the midpoint of a concentration-inhibition curve. Low readings indicate greater potency, high ones weaker potency.

Chain of ERβ (Q92731 whole entry): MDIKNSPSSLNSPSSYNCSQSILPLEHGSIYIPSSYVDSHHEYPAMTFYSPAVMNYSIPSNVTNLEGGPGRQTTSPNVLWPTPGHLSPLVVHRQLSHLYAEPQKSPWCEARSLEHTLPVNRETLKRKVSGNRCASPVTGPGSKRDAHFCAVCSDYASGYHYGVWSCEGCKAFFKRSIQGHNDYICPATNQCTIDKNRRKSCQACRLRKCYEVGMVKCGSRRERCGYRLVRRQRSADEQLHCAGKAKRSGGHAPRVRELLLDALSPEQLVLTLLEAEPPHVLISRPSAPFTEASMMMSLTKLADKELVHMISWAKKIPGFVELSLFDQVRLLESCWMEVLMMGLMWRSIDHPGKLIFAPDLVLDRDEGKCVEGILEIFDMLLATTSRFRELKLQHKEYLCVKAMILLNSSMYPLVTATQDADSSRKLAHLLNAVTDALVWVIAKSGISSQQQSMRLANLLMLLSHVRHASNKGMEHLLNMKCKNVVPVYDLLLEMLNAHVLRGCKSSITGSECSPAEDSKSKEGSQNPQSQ

For the compound `CC(C)=CCC/C(C)=C/CC/C(C)=C/CC[C@]1(C)CCc2cc(O)cc(C)c2O1` [δ-TT, δ-tocotrienol], the “transcription of PR (fold increase)” value with PR was found to be 1.6 fold. Further, in the assay on Ps2 (TFF1), the “transcription of Ps2 (fold increase)” value was “twofold”. Further, the “transcription of TGFα (fold increase)” value in the assay on TGFα is recorded as 1.1 fold. The IC50 on ERβ was determined as 91 ± 7 µM.
